Measurements from patent US10143747B2, “Breast cancer therapeutics” (IMBA—INSTITUT FÜR MOLEKULARE BIOTECHNOLOGIE GMBH, priority 2010, dated 2018).

B1: RANKL: recombinant RANKL protein, ligand of RANK, used as stimulus (1 μg/ml or 1 μg i.p.) (protein, UniProt O35235 139-316, looked up)
Tumor necrosis factor ligand …: FSGAPAMMEGSWLDVAQRGKPEAQPFAHLTINAASIPSGSHKVTLSSWYHDRGWAKISNMTLSNGKLRVNQDGFYYLYANICFRHHETSGSVPTDYLQLMVYVVKTSIKIPSSHNLMKGGSTKNWSGNSEFHFYSINVGGFFKLRAGEEISIQVSNPSLLDPDQDATYFGAFKVQDID

Assays:
[1] = system: mammary epithelial cells; assay: Epithelial proliferation in mammary glands by in situ Ki67 immunostaining; assay type: in vivo, mouse
Protocol: (§1) a,b, Induction of RANKL expression by the progesterone-derivative MPA. Nulliparous wild type females were s.c. implanted with slow-release MPA pellets or treated with surgery sham. a, RANKL mRNA was determined in purified mammary epithelial cells by qRT-PCR three days after implantation. Data are shown as fold change compared to sham treatment (+/−sem) (n=3). b, In situ […] immunostaining of progesterone receptor (PR, red) and RANKL (green) in mammary epithelial cells after 3d MPA treatment. c, Induction of soluble RANKL protein assayed on isolated mammary gland epithelial cells from control, but not in prolactin receptor mutant (PRL-R KO) females on day 3 after s.c. MPA implantation. Mammary glands from sham operated control litter-mates and PRL-R KO females are shown as controls. d, Epithelial proliferation in mammary glands of control littermates and RANK^Δmam females 3 days after sham treatment and MPA implantation. Proliferation was determined by in situ Ki67 immunostaining. e,f, Marked increase of the stem cell-enriched CD24^+CD49^high population (MaSC) in MPA-treated mammary glands in control but not in RANK^Δmam mammary glands. e, Representative FACS profiles showing CD24 and CD49 expression of lineage negative (CD31^− (endothelial cells) CD45^− (hematopoietic cells) […] (erythroid cells)) of mammary MaSCs from MPA- or sham-treated 8-week old virgin females. f, Quantification of MaSC-enriched CD24^+CD49^high population from mammary glands of MPA- or sham-treated virgin RANK^Δmam and littermate control females. For all MaSCs experiments mice were treated with MPA for 3 days. n=4 per group+/−sem. *P<0.05; ***P<0.001 (Student's t-test).
At least 1000 mammary gland epithelial cells were counted per mouse. n=3 mice per genotype. **P<0.005; ***P<0.001 (Student's t-test). b, Quantification of in situ Ki67 immunostained cells per acinus from mammary glands of control littermate and RANK^Δmam females on day 3 after MPA s.c. implantation. […] At least 1000 cells were counted per mammary gland. n=3 per genotype. In b, and c, data are shown as percentage of acini/ducts with low (<20% of epithelial cells are Ki67^+), medium (20-80% of epithelial cells are Ki67^+) and high (>80% of epithelial cells are Ki67^+) numbers of proliferating cells+/−sem. ***P<0.001; *P<0.03 (Student's t-test). d, Epithelial proliferation in mammary glands of control littermates and RANK^Δmam females 1 day after i.p. injection of PBS or RANKL (1 μg). Proliferation was determined in situ Ki67 immunostaining. Magnifications×40. e, Quantification of epithelial proliferation 1 day after i.p. injection of PBS or RANKL (1 μg). Mean percentages of Ki67 positive cells+/−sem are shown. *P<0.03; n=5 (Student's t-test).
For histological analysis, 5 μm sections were cut and stained with hematoxylin and eosin (H&E). Whole-mount staining of mammary glands was performed as described^8. For immunoperoxidase staining paraffin-embedded sections were […] and antigenic epitopes exposed using a 10 mM citrate buffer or microwaving. […] Histomorphometric indices (proliferation and apoptosis) were calculated as the number of positive epithelial cells divided by the total number of epithelial cells, with no fewer than 1000 nuclei for Ki67 stainings and no fewer than 5000 cells for active Caspase 3 staining counted per section. […]

[2] = system: Lin-CD24+CD49f^hi cells; assay: FACS quantification of stem cell-enriched Lin-CD24+CD49f hi mammary population (MaSC); assay type: in vivo, mouse; settings: MPA for 3 days
Protocol: as §1, with “Mammary glands from sham operated control litter-mates and PRL-R KO females are shown as controls. d, Epithelial proliferation in mammary glands of control littermates and RANK^Δmam females 3 days after sham treatment and MPA implantation.” left out, “For all MaSCs experiments mice were treated with MPA for 3 days. n=4 per group+/−sem. *P<0.05; ***P<0.001 (Student's t-test).” left out

| Molecule | MPA-induced proliferation of mammary epithelial cells ([1]; RANKΔmam females, 3 days after MPA implantation) | acini with very low proliferation rates (Ki67) ([1]; RANKΔmam females, day 3 after MPA s.c. implantation) | acini with medium to high proliferation (Ki67) ([1]; control females, day 3 after MPA s.c. implantation) | proliferation of mammary epithelial cells ([1]; wild type, 3 days after MPA implantation) | expansion of Lin-CD24+CD49f hi cells ([2]; RANKΔmam females) | expansion of Lin-CD24+CD49f hi cells ([2]; control females) | proliferation of mammary gland epithelial cells ([1]; nulliparous females, 1 day after i.p. injection of RANKL (1 μg)) |
| --- | --- | --- | --- | --- | --- | --- | --- |
| CC(=O)O[C@]1(C(C)=O)CC[C@H]2[C@@H]3C[C@H](C)C4=CC(=O)CC[C@]4(C)[C@H]3CC[C@@]21C [MPA, medroxyprogesterone acetate] | significantly reduced | more than 60% | ~80% | triggers massive proliferation | did not occur | two-fold | – |
| B1 | – | – | – | – | – | – | triggered proliferation of mammary gland epithelial cells via RANK |
